How the values were obtained:
H. pylori ATCC 43504 = test: Minimum Inhibitory Concentration (MIC) blood agar plate growth inhibition; format: cell-based, Helicobacter pylori; details: for growth (amount of colonies present within the petri plate): Table VII, urease positive
Experimental: Subsequent dilutions were made in ethanol immediately prior to use. […] Subsequent dilutions were made in BHI medium (Brain heart infusion broth, Difco #0037-07-0) immediately prior to use.
(§1) Blood agar base (BAB) was prepared containing 1.5% agar and autoclaved. 20 ml samples of autoclaved BAB were poured into 50 mL tubes and placed in a 56° C. water bath.
The mixed media preparation was poured into a petri dished and allowed to solidify.
(§2) Prior to inoculation of petri plates, bacteria or cultures were examined for morphology under a phase microscope to confirm motility and physical characteristics, e.g., spiral shaped. The organisms were washed off the plate into PBS (Phosphate buffered saline) (80.0 g NaCl, 2.0 g KCl, 2.4 g KH2PO4 11.5 g Na2HPO4 or 24.4 g Na2HPO4/2H2O per 1 liter deionized water, pH 7.2, sterilized by autoclaving) and diluted into BHI at a concentration of 10^8/ml (O.D. of 0.3 units diluted 1:30). Ten microliters of solution containing 10^6 organisms were spread onto a petri plate and grown under microaerophilic conditions for 3 days unless specified. Control organisms were grown under microaerophilic conditions.
(§3) Inhibition of growth was determined by the amount of colonies present within the petri plate. The following factors were used for growth inhibition: ±=0-20 colonies, +=20-50 colonies, ++=50-200 colonies and +++=200+ colonies.

[1] = test system: H. pylori (urease positive) ATCC Number 51652; test: as above; format: cell-based, Helicobacter pylori; details: Table XVII, Blood agar base + 3% sheep blood
Experimental: (§4) Monensin (Sigma Cat. No. M-5273) was dissolved in 100% absolute ethanol (AAPER Alcohol and Chemical Co.) at a concentration of 20 mg/ml. Subsequent dilutions were made in ethanol immediately prior to use. Nigericin (Sigma Cat. No. N-7143) was dissolved in DMSO at 2 mg/ml. Subsequent dilutions were made in BHI medium (Brain heart infusion broth, Difco #0037-07-0) immediately prior to use.
as §1
(§5) 100 μl of a drug (final concentration equivalent to 1:200 of original concentration) and 1.2 ml of sheep blood (Colorado Senun Company # CS-1112) (blood diluted in a 1:1 buffer providing a 3% concentration of blood per 20 ml medium sample) were added to 20 ml sample of media and mixed. The mixed media preparation was poured into a petri dished and allowed to solidify.
as §2, §3

Staph ATCC 14775 = test: Blood agar plate growth inhibition, control organism; format: cell-based; details: Table XV, Non microaerophilic conditions
Experimental: as §4, §1, §5
as §2, with “Control organisms were grown under microaerophilic conditions.” left out
as §3

[2] = final drug concentration 10 ng/ml
[3] = final drug concentration 100 ng/ml
[4] = final drug concentration 1 μg/ml
[5] = final drug concentration 10 μg/ml

CC[C@@H](C(=O)[C@@H](C)[C@@H](O)[C@H](C)[C@@H]1O[C@@H]([C@@H](CC)C(=O)O)CC[C@@H]1C)[C@H]1O[C@]2(C=C[C@@H](O)[C@]3(CC[C@@](C)([C@H]4CC[C@](O)(CC)[C@H](C)O4)O3)O2)[C@H](C)C[C@@H]1C [Salinomycin, salinomycin]
(+++)^1 (+++=200+ colonies): growth (amount of colonies present within the petri plate) (Staph ATCC 14775; [4])
(+++) (+++=200+ colonies): growth (amount of colonies present within the petri plate) (H. pylori ATCC 43504; final drug concentration 0.098 μg/ml) | growth (amount of colonies present within the petri plate) (H. pylori ATCC 43504; final drug concentration 0.195 μg/ml) | growth (amount of colonies present within the petri plate) (H. pylori ATCC 43504; final drug concentration 0.39 μg/ml) | growth (amount of colonies present within the petri plate) (H. pylori ATCC 43504; final drug concentration 0.78 μg/ml) | growth (amount of colonies present within the petri plate) (H. pylori ATCC 43504; final drug concentration 1.56 μg/ml) | growth (amount of colonies present within the petri plate) ([1]; final drug concentration 0.1 ng/ml) | growth (amount of colonies present within the petri plate) ([1]; final drug concentration 1 ng/ml) | growth (amount of colonies present within the petri plate) [1, 2] | growth (amount of colonies present within the petri plate) [1, 3] | growth (amount of colonies present within the petri plate) [1, 4] | growth (amount of colonies present within the petri plate) (Staph ATCC 14775; [2]) | growth (amount of colonies present within the petri plate) (Staph ATCC 14775; [3])
No growth: growth (amount of colonies present within the petri plate) [1, 5] | growth (amount of colonies present within the petri plate) (Staph ATCC 14775; [5])
6.25 µg/mL: MIC (H. pylori ATCC 43504; Helicobacter pylori, ATCC43504)
